Reference: PubChem BioAssay (NCI)
“And” between values parts separate entries of the source, which are not always exact repeats. Equal values may be shown once.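 Five compound concentrations were applied to cells in 96-well plates for 48 hours; endpoints were derived by simple linear interpolation of the resulting dose-response curve. At the GI50, growth is halved. TGI denotes the concentration required for complete inhibition of growth.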

Columns and labels:
Test in all cases: NCI tumour cell line growth inhibition, 48 h
[1] = tested on: ACHN renal
[2] = tested on: RPMI-8226 leukemia
[3] = tested on: UACC-62 melanoma
[4] = tested on: MOLT-4 leukemia
[5] = tested on: SK-MEL-2 melanoma
[6] = tested on: SK-MEL-28 melanoma
[7] = tested on: HOP-62 NSCLC
[8] = tested on: UACC-257 melanoma
[9] = tested on: NCI-H460 lung
[10] = tested on: NCI/ADR-RES ovarian
[11] = tested on: SF-295 CNS

Structure (SMILES)	TGI [1]	TGI [2]	TGI [3]	TGI [4]	TGI [5]	TGI [6]	TGI [7]	TGI [8]	TGI [9]	TGI [10]	TGI [11]	GI50 [6]	GI50 [2]	GI50 [4]
COc1ccc(C2=NN=C3C(c4ccccc4)=Nc4ccccc4N3C2)cc1	> 100 µM	> 100 µM	> 100 µM	33.4 µM	> 100 µM	> 100 µM	> 100 µM	> 100 µM	> 100 µM	90.1 µM				
CCOC(=O)C(NC(=O)OC(C)(C)C)C(=O)OCC	> 100 µM	> 100 µM	> 100 µM	> 100 µM	> 100 µM	> 100 µM	> 100 µM	> 100 µM	> 100 µM	> 100 µM				
CCN(CC)CC(=N)N(CC)c1ccccc1	> 100 µM	> 100 µM	> 100 µM	> 100 µM	> 100 µM	> 100 µM	> 100 µM	> 100 µM	> 100 µM		> 100 µM			
COc1ccc(N2C(=O)C3c4[nH]c5ccccc5c4C4CCCCC4C3C2=O)cc1 (configuration not stated)	> 100 µM	> 100 µM	33.3 µM	36.9 µM	53.5 µM	42.4 µM	35.8 µM	> 100 µM	> 100 µM		36 µM			
Cc1ccc(-n2cc([Si](C)(C)C)nn2)s1	> 100 µM	> 100 µM	> 100 µM		> 100 µM	> 100 µM		> 100 µM	> 100 µM	> 100 µM	> 100 µM			
CCC(NC1=NCCO1)c1cccs1 (configuration not stated)	29.4 µM	> 100 µM	30.8 µM	> 100 µM	29.4 µM	29 µM		35.8 µM	46 µM	> 100 µM	28.4 µM			
NC1CC=C(COC(=O)C(O)(c2ccccc2)C2CC2)CC1 (configuration not stated)	> 100 µM	> 100 µM	> 100 µM	> 100 µM		> 100 µM	> 100 µM	> 100 µM		> 100 µM	> 100 µM			
O=C1CSc2cc([N+](=O)[O-])ccc2N1	> 100 µM		> 100 µM	> 100 µM	> 100 µM	> 100 µM	> 100 µM	> 100 µM	> 100 µM		> 100 µM			
O=C1c2ccccc2C(=O)c2[nH]c(Cc3ccc(F)cc3)nc21	31.2 µM	95.8 µM	35.5 µM	71.2 µM	29 µM	35 µM	44.3 µM	30.4 µM	31.1 µM		31.2 µM			
C/C=C(/C)C(=O)O[C@H]1[C@H](O)CC(c2ccc3c(c2O)C(O)=C2C(=O)C4(OC)C(O)=C(C(N)=O)C(=O)[C@H](CC(=O)c5ccccc5O)C4CC2[C@@]3(C)OC)O[C@@H]1C (some centres not stated)	3.96 µM	0.557 µM and 1.76 µM	0.236 µM	10.5 µM	0.0696 µM	2.56 µM and 2.45 µM					0.193 µM and 0.128 µM	1060 nM		
CCN1CCC(O)(/C=C/c2ccc(C(C)C)cc2)C(C(=O)/C=C/c2ccc(C(C)C)cc2)C1 (configuration not stated)	3.31 µM		15.7 µM	5.18 µM	10.5 µM	11.7 µM	13.3 µM	19.4 µM	3.35 µM	8.44 µM	9.36 µM			
O=C(O)Cn1cc([N+](=O)[O-])c(=O)c2ccccc21	> 100 µM		> 100 µM	> 100 µM	> 100 µM	> 100 µM	> 100 µM	> 100 µM	> 100 µM	> 100 µM	> 100 µM			
Cn1c(=O)c2/c(n(C)c1=O)=N\C=c1\c(=O)n(C)c(=O)n(C)\c1=N\C=2	> 100 µM		> 100 µM	> 100 µM	> 100 µM	> 100 µM	> 100 µM	> 100 µM	> 100 µM		> 100 µM			
O=C(/C=C\c1cccc2ccccc12)c1cccc2ccccc12	24.1 µM	> 100 µM	27.8 µM	8.08 µM and 20.5 µM	36.8 µM	20.5 µM	39.7 µM	29.9 µM			30.2 µM		2680 nM	2490 nM
Cc1ccc(N=C2C(=Nc3ccc(C)cc3)N(c3ccc(C)cc3)C(=S)N2C(=O)c2ccccc2)cc1	> 100 µM	> 100 µM	> 100 µM	> 100 µM	> 100 µM	> 100 µM	> 100 µM		> 100 µM	> 100 µM	32.3 µM			
CC1=C(C)C(=O)C(C2=CC(=O)C=CC2=O)=C(C2=CC(=O)C=CC2=O)C1=O	> 100 µM		> 100 µM	44.8 µM	> 100 µM	> 100 µM	> 100 µM	> 100 µM	> 100 µM	> 100 µM	> 100 µM			
Oc1ccc(Cl)cc1C1=NC(/N=C\c2ccccc2)=NC(c2ccccc2)C1 (configuration not stated)			> 100 µM	> 100 µM	> 100 µM	> 100 µM	> 100 µM	> 100 µM		> 100 µM	> 100 µM			
CC(=O)[CH-]C(=O)c1ccccc1.CC(=O)[CH-]C(=O)c1ccccc1.CC[O-].O=C1c2ccccc2C(=O)c2c1ccc(O)c2[O-].[Ti+4]	> 100 µM	64.7 µM	> 100 µM	61.2 µM	> 100 µM	> 100 µM	> 100 µM	> 100 µM	> 100 µM		> 100 µM			
CC(=O)N/C(=C\c1ccc(Cc2nc3c([nH]2)C(=O)c2ccccc2C3=O)cc1)c1nc2c([nH]1)C(=O)c1ccccc1C2=O	> 100 µM	> 100 µM		> 100 µM	> 100 µM	> 100 µM	> 100 µM	> 100 µM	> 100 µM		> 100 µM			
O=S1Nc2c(Cl)cc(Cl)c(Cl)c2S1 (configuration not stated)	> 100 µM	> 100 µM	> 100 µM	> 100 µM	> 100 µM	> 100 µM	> 100 µM	> 100 µM	> 100 µM		> 100 µM			
C=C(c1ccccc1)c1ccccc1-c1cc(-c2ccccc2)cc(-c2ccccc2)n1	> 100 µM	> 100 µM	> 100 µM	> 100 µM		> 100 µM	> 100 µM	> 100 µM	> 100 µM	> 100 µM	> 100 µM			
